Source: the NIST ThermoML archive (doi:10.1021/je0340248)
Numbers after ± are expanded uncertainties.

Assay: xn = mol fraction of the nth substance listed
Conditions: 101 kPa, Liquid

CC(=O)OCCC(C)C [3-methylbutyl ethanoate] + CC(O)CO
Conditions	mass density, 298.15 K [kg/m3]	mass density, 303.15 K [kg/m3]	mass density, 308.15 K [kg/m3]	mass density, 313.15 K [kg/m3]	speed of sound, 298.15 K [m/s]	speed of sound, 308.15 K [m/s]	viscosity, 298.15 K [mPa·s]	viscosity, 308.15 K [mPa·s]
x1 = 0.0455	1017.21 ± 0.37	1013.29 ± 0.38	1009.48 ± 0.39	1005.69 ± 0.4	1460 ± 2	1425 ± 2	31.61 ± 0.43	18.4 ± 0.34
x1 = 0.1457	988 ± 0.47	983.78 ± 0.48	979.64 ± 0.49	976.02 ± 0.5	1398 ± 2	1369 ± 2	16.42 ± 0.26	10.43 ± 0.16
x1 = 0.2483	963.53 ± 0.56	959.11 ± 0.58	954.73 ± 0.59	951.27 ± 0.6	1346 ± 2	1320 ± 2	8.962 ± 0.14	6.168 ± 0.095
x1 = 0.3508	943.13 ± 0.64	938.57 ± 0.66	934.01 ± 0.67	930.68 ± 0.68	1304 ± 2	1281 ± 2	5.224 ± 0.084	3.864 ± 0.06
x1 = 0.452	926.02 ± 0.71	921.33 ± 0.73	916.63 ± 0.74	913.4 ± 0.75	1270 ± 2	1248 ± 2	3.269 ± 0.052	2.574 ± 0.041
x1 = 0.4959	919.36 ± 0.74	914.62 ± 0.75	909.86 ± 0.77	906.68 ± 0.78	1258 ± 2	1235 ± 2	2.721 ± 0.043	2.196 ± 0.035
x1 = 0.5551	911.01 ± 0.77	906.21 ± 0.79	901.38 ± 0.8	898.24 ± 0.81	1243 ± 2	1220 ± 2	2.165 ± 0.034	1.802 ± 0.029
x1 = 0.6523	898.71 ± 0.82	893.81 ± 0.84	888.88 ± 0.86	885.8 ± 0.87	1223 ± 2	1199 ± 2	1.56 ± 0.025	1.357 ± 0.022
x1 = 0.7497	887.92 ± 0.87	882.93 ± 0.89	877.91 ± 0.9	874.87 ± 0.91	1211 ± 2	1182 ± 2	1.191 ± 0.02	1.075 ± 0.018
x1 = 0.8495	878.28 ± 0.91	873.2 ± 0.93	868.1 ± 0.95	865.12 ± 0.95	1202 ± 2	1169 ± 2	0.961 ± 0.016	0.893 ± 0.015
x1 = 0.9426	870.47 ± 0.95	865.34 ± 0.96	860.17 ± 0.98	857.24 ± 0.99	1197 ± 2	1160 ± 2	0.831 ± 0.014	0.788 ± 0.014

OCCOCCO [diethylene glycol] + CCOC(C)=O
Conditions	mass density, 298.15 K [kg/m3]	mass density, 303.15 K [kg/m3]	mass density, 308.15 K [kg/m3]	mass density, 313.15 K [kg/m3]	speed of sound, 298.15 K [m/s]	speed of sound, 308.15 K [m/s]	viscosity, 298.15 K [mPa·s]	viscosity, 308.15 K [mPa·s]
x2 = 0.0441	1103.89 ± 0.31	1100.06 ± 0.3	1096.4 ± 0.3	1092.83 ± 0.29	1557 ± 2	1527 ± 2	26.54 ± 0.38	14.6 ± 0.29
x2 = 0.1491	1081.32 ± 0.32	1077.52 ± 0.32	1073.43 ± 0.32	1069.24 ± 0.32	1501 ± 2	1467 ± 2	19.33 ± 0.29	10.14 ± 0.21
x2 = 0.2504	1059.83 ± 0.35	1055.84 ± 0.35	1051.57 ± 0.36	1047.06 ± 0.36	1444 ± 2	1410 ± 2	13.79 ± 0.22	7.076 ± 0.16
x2 = 0.3491	1039 ± 0.4	1034.73 ± 0.4	1030.34 ± 0.41	1025.66 ± 0.42	1393 ± 2	1358 ± 2	9.631 ± 0.16	4.946 ± 0.12
x2 = 0.4487	1017.94 ± 0.46	1013.34 ± 0.47	1008.79 ± 0.48	1004.01 ± 0.49	1346 ± 2	1311 ± 2	6.504 ± 0.11	3.42 ± 0.079
x2 = 0.5011	1006.8 ± 0.49	1002.03 ± 0.5	997.36 ± 0.52	992.53 ± 0.53	1322 ± 2	1287 ± 2	5.226 ± 0.091	2.808 ± 0.064
x2 = 0.5485	996.65 ± 0.52	991.74 ± 0.54	986.94 ± 0.55	982.07 ± 0.56	1301 ± 2	1267 ± 2	4.257 ± 0.075	2.345 ± 0.052
x2 = 0.6492	974.85 ± 0.59	969.64 ± 0.61	964.5 ± 0.62	959.48 ± 0.63	1261 ± 2	1226 ± 2	2.692 ± 0.048	1.591 ± 0.032
x2 = 0.7505	952.44 ± 0.67	946.98 ± 0.68	941.47 ± 0.7	936.2 ± 0.71	1223 ± 2	1188 ± 2	1.645 ± 0.029	1.068 ± 0.02
x2 = 0.8492	930.05 ± 0.75	924.36 ± 0.76	918.52 ± 0.78	912.88 ± 0.8	1189 ± 2	1151 ± 2	0.988 ± 0.018	0.719 ± 0.013
x2 = 0.9445	907.81 ± 0.83	901.89 ± 0.84	895.89 ± 0.86	889.73 ± 0.88	1157 ± 2	1116 ± 2	0.587 ± 0.011	0.487 ± 0.009
